From PubChem BioAssay AID2060621 (Molecular Pharmacology Branch, DTP, NCI, 2025)

System: 324938-238-R-J1-PDC complex spheroids viability
Test: Anticancer human tumor 324938-238-R-J1-PDC patient-derived bladder carcinoma cell line growth inhibition [CLK]
Settings: for IC50: curve of first compound; for viability, T/C: stronger effect = lower value
Procedure, shortened: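 Patient-derived tumor cells grown as complex spheroids with HUVEC endothelial cells and mesenchymal stem cells, treated with drug combinations. Concentrations descend in half-log steps from near clinical Cmax, or from 10 microM if Cmax unknown.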

[1] = second compound 0.0316 µM, first compound 0.00949 µM
[2] = second compound 0.0316 µM, first compound 0.03 µM
[3] = second compound 0.0316 µM, first compound 0.0949 µM
[4] = second compound 0.0316 µM, first compound 0.3 µM
[5] = second compound 0.1 µM, first compound 0.00949 µM
[6] = second compound 0.1 µM, first compound 0.03 µM
[7] = second compound 0.1 µM, first compound 0.0949 µM
[8] = second compound 0.1 µM, first compound 0.3 µM
[9] = second compound 0.316 µM, first compound 0.00949 µM
[10] = second compound 0.316 µM, first compound 0.03 µM
[11] = second compound 0.316 µM, first compound 0.0949 µM
[12] = second compound 0.316 µM, first compound 0.3 µM
[13] = second compound 1 µM, first compound 0.00949 µM
[14] = second compound 1 µM, first compound 0.03 µM
[15] = second compound 1 µM, first compound 0.0949 µM
[16] = second compound 1 µM, first compound 0.3 µM
[17] = second compound 3.16 µM, first compound 0.00949 µM
[18] = second compound 3.16 µM, first compound 0.03 µM
[19] = second compound 3.16 µM, first compound 0.0949 µM
[20] = second compound 3.16 µM, first compound 0.3 µM
[21] = second compound 10 µM, first compound 0.00949 µM
[22] = second compound 10 µM, first compound 0.03 µM
[23] = second compound 10 µM, first compound 0.0949 µM
[24] = second compound 10 µM, first compound 0.3 µM
[25] = second compound 0.0316 µM, first compound 0.0316 µM
[26] = second compound 0.0316 µM, first compound 0.1 µM
[27] = second compound 0.0316 µM, first compound 0.316 µM
[28] = second compound 0.0316 µM, first compound 1 µM
[29] = second compound 0.0316 µM, first compound 3.16 µM
[30] = second compound 0.0316 µM, first compound 10 µM
[31] = second compound 0.1 µM, first compound 0.0316 µM
[32] = second compound 0.1 µM, first compound 0.1 µM
[33] = second compound 0.1 µM, first compound 0.316 µM
[34] = second compound 0.1 µM, first compound 1 µM
[35] = second compound 0.1 µM, first compound 3.16 µM
[36] = second compound 0.1 µM, first compound 10 µM
[37] = second compound 0.316 µM, first compound 0.0316 µM
[38] = second compound 0.316 µM, first compound 0.1 µM
[39] = second compound 0.316 µM, first compound 0.316 µM
[40] = second compound 0.316 µM, first compound 1 µM
[41] = second compound 0.316 µM, first compound 3.16 µM
[42] = second compound 0.316 µM, first compound 10 µM
[43] = second compound 1 µM, first compound 0.0316 µM
[44] = second compound 1 µM, first compound 0.1 µM
[45] = second compound 1 µM, first compound 0.316 µM
[46] = second compound 1 µM, first compound 1 µM
[47] = second compound 1 µM, first compound 3.16 µM
[48] = second compound 1 µM, first compound 10 µM
[49] = second compound 3.16 µM, first compound 0.0316 µM
[50] = second compound 3.16 µM, first compound 0.1 µM
[51] = second compound 3.16 µM, first compound 0.316 µM
[52] = second compound 3.16 µM, first compound 1 µM
[53] = second compound 3.16 µM, first compound 3.16 µM
[54] = second compound 3.16 µM, first compound 10 µM
[55] = second compound 10 µM, first compound 0.0316 µM
[56] = second compound 10 µM, first compound 0.1 µM
[57] = second compound 10 µM, first compound 0.316 µM
[58] = second compound 10 µM, first compound 1 µM
[59] = second compound 10 µM, first compound 3.16 µM
[60] = second compound 10 µM, first compound 10 µM
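Note: viability read after seven days of drug exposure.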
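Throughout, for viability, T/C: 100% = DMSO vehicle control wells.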

C=CC(=O)Nc1cc(Nc2nccc(-c3cn(C)c4ccccc34)n2)c(OC)cc1N(C)CCN(C)C + CN1CCN(c2cc(C(=O)Nc3cc4cc(-c5cnn(C)c5)ccc4cn3)ccn2)CC1
IC50 (second compound 0.0316 µM): 69.5 nM
IC50 (second compound 0.1 µM): 6.25 nM
IC50 (second compound 0.316 µM): < 0.949 nM
IC50 (second compound 1 µM): < 0.949 nM
IC50 (second compound 3.16 µM): < 0.949 nM
IC50 (second compound 10 µM): < 0.949 nM
viability, T/C (second compound 0.0316 µM, first compound 0.000949 µM): 80%
viability, T/C (second compound 0.0316 µM, first compound 0.003 µM): 77.5%
viability, T/C [1]: 69.7%
viability, T/C [2]: 66.3%
viability, T/C [3]: 43.7%
viability, T/C [4]: 25.3%
viability, T/C (second compound 0.1 µM, first compound 0.000949 µM): 60.3%
viability, T/C (second compound 0.1 µM, first compound 0.003 µM): 48.5%
viability, T/C [5]: 51%
viability, T/C [6]: 39%
viability, T/C [7]: 33%
viability, T/C [8]: 19.1%
viability, T/C (second compound 0.316 µM, first compound 0.000949 µM): 19.7%
viability, T/C (second compound 0.316 µM, first compound 0.003 µM): 22.8%
viability, T/C [9]: 20.9%
viability, T/C [10]: 21.8%
viability, T/C [11]: 17.1%
viability, T/C [12]: 15.7%
viability, T/C (second compound 1 µM, first compound 0.000949 µM): 1.22%
viability, T/C (second compound 1 µM, first compound 0.003 µM): 1.22%
viability, T/C [13]: 1.43%
viability, T/C [14]: 1.11%
viability, T/C [15]: 1.21%
viability, T/C [16]: 0.28%
viability, T/C (second compound 3.16 µM, first compound 0.000949 µM): 0.13%
viability, T/C (second compound 3.16 µM, first compound 0.003 µM): 0.13%
viability, T/C [17]: 0.19%
viability, T/C [18]: 0.14%
viability, T/C [19]: 0.11%
viability, T/C [20]: 0.16%
viability, T/C (second compound 10 µM, first compound 0.000949 µM): 0.15%
viability, T/C (second compound 10 µM, first compound 0.003 µM): 0.16%
viability, T/C [21]: 0.21%
viability, T/C [22]: 0.16%
viability, T/C [23]: 0.18%
viability, T/C [24]: 0.21%

CC1(C)CCC(CN2CCN(c3ccc(C(=O)NS(=O)(=O)c4ccc(NCC5CCOCC5)c([N+](=O)[O-])c4)c(Oc4cnc5[nH]ccc5c4)c3)CC2)=C(c2ccc(Cl)cc2)C1 + CN1CCN(c2cc(C(=O)Nc3cc4cc(-c5cnn(C)c5)ccc4cn3)ccn2)CC1
IC50 (second compound 0.0316 µM): 6720 nM
IC50 (second compound 0.1 µM): 1480 nM
IC50 (second compound 0.316 µM): < 31.6 nM
IC50 (second compound 1 µM): < 31.6 nM
IC50 (second compound 3.16 µM): < 31.6 nM
IC50 (second compound 10 µM): < 31.6 nM
viability, T/C [25]: 79.6%
viability, T/C [26]: 90.2%
viability, T/C [27]: 80.3%
viability, T/C [28]: 81%
viability, T/C [29]: 82.8%
viability, T/C [30]: 32.7%
viability, T/C [31]: 51.9%
viability, T/C [32]: 55.4%
viability, T/C [33]: 47.4%
viability, T/C [34]: 54.9%
viability, T/C [35]: 46.2%
viability, T/C [36]: 26.4%
viability, T/C [37]: 25.2%
viability, T/C [38]: 22.9%
viability, T/C [39]: 19%
viability, T/C [40]: 24.8%
viability, T/C [41]: 21.5%
viability, T/C [42]: 11.6%
viability, T/C [43]: 1.53%
viability, T/C [44]: 1.38%
viability, T/C [45]: 1.4%
viability, T/C [46]: 1.48%
viability, T/C [47]: 1.08%
viability, T/C [48]: 0.34%
viability, T/C [49]: 0.12%
viability, T/C [50]: 0.21%
viability, T/C [51]: 0.14%
viability, T/C [52]: 0.14%
viability, T/C [53]: 0.11%
viability, T/C [54]: 0.16%
viability, T/C [55]: 0.12%
viability, T/C [56]: 0.16%
viability, T/C [57]: 0.16%
viability, T/C [58]: 0.14%
viability, T/C [59]: 0.19%
viability, T/C [60]: 0.19%

NC(=O)C(=Cn1cnc(-c2cc(C(F)(F)F)cc(C(F)(F)F)c2)n1)c1cncnc1 + CN1CCN(c2cc(C(=O)Nc3cc4cc(-c5cnn(C)c5)ccc4cn3)ccn2)CC1
IC50 (second compound 0.0316 µM): 44.9 nM
IC50 (second compound 0.1 µM): < 9.49 nM
IC50 (second compound 0.316 µM): < 9.49 nM
IC50 (second compound 1 µM): < 9.49 nM
IC50 (second compound 3.16 µM): < 9.49 nM
IC50 (second compound 10 µM): < 9.49 nM
viability, T/C [1]: 73.6%
viability, T/C [2]: 56.1%
viability, T/C [3]: 37.3%
viability, T/C [4]: 11.8%
viability, T/C (second compound 0.0316 µM, first compound 0.949 µM): 4.81%
viability, T/C (second compound 0.0316 µM, first compound 3 µM): 2.71%
viability, T/C [5]: 47.5%
viability, T/C [6]: 37.8%
viability, T/C [7]: 26%
viability, T/C [8]: 8.9%
viability, T/C (second compound 0.1 µM, first compound 0.949 µM): 3.44%
viability, T/C (second compound 0.1 µM, first compound 3 µM): 1.05%
viability, T/C [9]: 21.6%
viability, T/C [10]: 13.4%
viability, T/C [11]: 11.1%
viability, T/C [12]: 1.12%
viability, T/C (second compound 0.316 µM, first compound 0.949 µM): 0.14%
viability, T/C (second compound 0.316 µM, first compound 3 µM): 0.06%
viability, T/C [13]: 0.21%
viability, T/C [14]: 0.17%
viability, T/C [15]: 0.15%
viability, T/C [16]: 0.09%
viability, T/C (second compound 1 µM, first compound 0.949 µM): 0.08%
viability, T/C (second compound 1 µM, first compound 3 µM): 0.09%
viability, T/C [17]: 0.09%
viability, T/C [18]: 0.13%
viability, T/C [19]: 0.16%
viability, T/C [20]: 0.12%
viability, T/C (second compound 3.16 µM, first compound 0.949 µM): 0.12%
viability, T/C (second compound 3.16 µM, first compound 3 µM): 0.11%
viability, T/C [21]: 0.07%
viability, T/C [22]: 0.12%
viability, T/C [23]: 0.23%
viability, T/C [24]: 0.16%
viability, T/C (second compound 10 µM, first compound 0.949 µM): 0.18%
viability, T/C (second compound 10 µM, first compound 3 µM): 0.21%

Nc1ccccc1NC(=O)c1ccc(CNC(=O)OCc2cccnc2)cc1 + CN1CCN(c2cc(C(=O)Nc3cc4cc(-c5cnn(C)c5)ccc4cn3)ccn2)CC1
IC50 (second compound 0.0316 µM): 1200 nM
IC50 (second compound 0.1 µM): 173 nM
IC50 (second compound 0.316 µM): < 31.6 nM
IC50 (second compound 1 µM): < 31.6 nM
IC50 (second compound 3.16 µM): < 31.6 nM
IC50 (second compound 10 µM): < 31.6 nM
viability, T/C [25]: 80.2%
viability, T/C [26]: 88.1%
viability, T/C [27]: 70.5%
viability, T/C [28]: 52.5%
viability, T/C [29]: 32.2%
viability, T/C [30]: 14.2%
viability, T/C [31]: 58.5%
viability, T/C [32]: 50%
viability, T/C [33]: 44.8%
viability, T/C [34]: 39.6%
viability, T/C [35]: 30.6%
viability, T/C [36]: 7.44%
viability, T/C [37]: 21.6%
viability, T/C [38]: 26%
viability, T/C [39]: 20.6%
viability, T/C [40]: 21.1%
viability, T/C [41]: 24.1%
viability, T/C [42]: 0.19%
viability, T/C [43]: 1.99%
viability, T/C [44]: 3.65%
viability, T/C [45]: 4%
viability, T/C [46]: 2.6%
viability, T/C [47]: 0.16%
viability, T/C [48]: 0.13%
viability, T/C [49]: 0.13%
viability, T/C [50]: 0.14%
viability, T/C [51]: 0.15%
viability, T/C [52]: 0.1%
viability, T/C [53]: 0.1%
viability, T/C [54]: 0.16%
viability, T/C [55]: 0.06%
viability, T/C [56]: 0.13%
viability, T/C [57]: 0.14%
viability, T/C [58]: 0.13%
viability, T/C [59]: 0.18%
viability, T/C [60]: 0.2%
